Results on 1 molecule are retold here after publication PMC3553074 (PLoS ONE, 2013).

This experiment concerns the target Ft-MglA/Ft-SspA complex (Francisella tularensis, UniProt Q5NFG1+Q5NHJ6).

Ft-MglA/Ft-SspA complex, sequence (Q5NFG1 1-205): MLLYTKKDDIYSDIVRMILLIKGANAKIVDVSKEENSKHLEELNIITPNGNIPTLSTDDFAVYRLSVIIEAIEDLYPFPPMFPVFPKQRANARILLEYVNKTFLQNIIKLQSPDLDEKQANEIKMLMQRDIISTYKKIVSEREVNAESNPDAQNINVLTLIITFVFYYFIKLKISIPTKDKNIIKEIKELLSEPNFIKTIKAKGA
Ft-MglA/Ft-SspA complex, sequence (Q5NHJ6 1-210): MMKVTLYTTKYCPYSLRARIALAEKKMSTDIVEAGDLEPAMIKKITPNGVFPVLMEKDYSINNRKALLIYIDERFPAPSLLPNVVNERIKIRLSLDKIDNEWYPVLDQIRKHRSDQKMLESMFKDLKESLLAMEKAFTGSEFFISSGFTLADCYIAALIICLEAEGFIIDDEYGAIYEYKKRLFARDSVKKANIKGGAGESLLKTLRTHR

Turning to `CCN(CC)CCCC(C)Nc1c2ccc(Cl)cc2nc2ccc(OC)cc12` (stereo not shown) [quinacrine], the “ΔTm (Tm1)” value stood at 24.0 °C.
